The target of one series is T1, hMAO B (Homo sapiens, UniProt P27338).
T1 construct: purchased Sigma Aldrich
T1 sequence (P27338 1-520): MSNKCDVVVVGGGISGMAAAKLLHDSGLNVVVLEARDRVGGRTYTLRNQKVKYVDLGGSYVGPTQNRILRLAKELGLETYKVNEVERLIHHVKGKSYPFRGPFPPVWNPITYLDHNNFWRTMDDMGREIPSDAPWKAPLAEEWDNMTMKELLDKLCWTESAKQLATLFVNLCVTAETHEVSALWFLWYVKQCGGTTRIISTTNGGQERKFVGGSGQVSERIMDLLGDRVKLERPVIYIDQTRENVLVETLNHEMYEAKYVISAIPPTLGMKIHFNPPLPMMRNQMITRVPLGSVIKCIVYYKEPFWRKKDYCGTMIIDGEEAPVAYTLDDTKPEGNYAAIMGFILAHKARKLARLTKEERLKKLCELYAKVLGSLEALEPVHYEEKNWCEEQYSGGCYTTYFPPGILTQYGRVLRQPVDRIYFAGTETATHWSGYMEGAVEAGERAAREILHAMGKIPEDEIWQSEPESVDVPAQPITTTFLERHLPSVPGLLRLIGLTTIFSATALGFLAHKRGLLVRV
In words: biochemical. In kind it is biochemical. The settings on record: for inhibition at 10 µM: read-out: % inhibition at 10 μM hMAO B.

In the next series the target is T2, hAChE (Homo sapiens, UniProt P22303).
T2 construct: purchased Sigma Aldrich
In words: biochemical. As to conditions: for inhibition at 10 µM: read-out: % inhibition at 10 μM hAChE. The source says: (§1) Readings were made with Infinite M1000 Pro plate reader (Tecan, Cernusco s.N., Italy) and statistical regressions with Prism software (GraphPad Prism version 5.00 for Windows, GraphPad Software, San Diego, CA, USA).

The target in a further series is T3, hMAO A (Homo sapiens, UniProt P21397).
T3 construct: purchased Sigma Aldrich
T3 sequence (P21397 1-527): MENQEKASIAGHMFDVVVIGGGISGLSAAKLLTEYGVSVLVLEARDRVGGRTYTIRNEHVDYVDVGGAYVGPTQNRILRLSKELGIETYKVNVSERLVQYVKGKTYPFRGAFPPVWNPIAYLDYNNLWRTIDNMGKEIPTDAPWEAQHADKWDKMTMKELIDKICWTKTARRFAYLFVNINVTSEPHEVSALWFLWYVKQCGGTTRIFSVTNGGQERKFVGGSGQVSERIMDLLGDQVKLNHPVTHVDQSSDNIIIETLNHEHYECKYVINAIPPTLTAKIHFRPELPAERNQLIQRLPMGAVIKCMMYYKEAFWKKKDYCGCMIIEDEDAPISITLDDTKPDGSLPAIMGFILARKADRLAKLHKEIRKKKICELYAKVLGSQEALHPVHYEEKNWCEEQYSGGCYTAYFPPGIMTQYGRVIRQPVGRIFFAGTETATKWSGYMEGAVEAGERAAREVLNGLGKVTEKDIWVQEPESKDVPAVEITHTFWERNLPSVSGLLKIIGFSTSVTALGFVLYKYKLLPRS
In words: biochemical. As to conditions: for inhibition at 10 µM: read-out: % inhibition at 10 μM hMAO A.
Text: as §1

A short description of series [1]: Hydrolytic stability in buffered solution (PBS pH 7.4, 37 °C). As to conditions: 20 μM in 10 mM PBS pH 7.4, 37 °C, 6 h incubation. In kind it is physicochemical. The protocol:
The hydrolytic stability of some representative imino/hydrazone/hydrazide derivatives was determined in buffered aqueous media. […]. […]. The hydrolytic degradation of 9 in its starting reagents was confirmed by the comparison of the chromatograms of 9 and 2‐chloro‐4‐hydroxyaniline, obtained in the same chromatographic conditions (Figure 6B).
Stability studies in buffered solution were performed following an already described procedure,[23] on a Phenomenex C18 column (150×4.6 mm i.d., 3 μm particle size; Phenomenex, Castel Maggiore, Italy) using a mobile phase consisting of a mixture of methanol‐water (75 : 25 v/v, with aqueous formic acid 0.1 %). The used flow rate was 0.500 mL/min while the injection volume was 20 μL. Wavelength of UV‐Vis detector was adjusted at 254 nm. The chemical stability was evaluated in a phosphate buffer solution pH 7.4 (10 mM HPO4 ^2−/H2PO4 ^−; 100 mM NaCl) at 37 °C. Five different concentrations from 0.5 μM to 20 μM were studied in a 2 h time range (data not shown). Each concentration (0.5, 1, 5, 10 and 20 μM) was tested in triplicate starting from 3 different stocks solution (1 mM) prepared separately. The time range was extended to 6 h only for the samples at 20 μM concentration (Figure 6a).

The nature of series [2]: RP-HPLC lipophilicity index log k’. In kind it is physicochemical. The settings on record: MeOH/phosphate buffer pH 7.4; methanol/PBS 60:40 v/v. From the text: To investigate a possible correlation between MAO inhibitory potency and lipophilicity,[7] we calculated log P with three different programs (ChemDraw 15.0; ALOG PS 2.1; ChemSketch 2017, see Table S1 in Supporting Information) and compared the calculated values with experimental lipophilicity indexes as assessed by reversed‐phase (RP) HPLC in isocratic conditions for the majority of compounds. The log of capacity factors (log k’) measured by RP‐HPLC using a mixture of methanol/PBS (60 : 40, v/v) as the mobile phase are reported in Tables 1 and 2, along with Clog P values calculated with ChemDraw. These calculated lipophilicity descriptors correlated with the experimental log k’ values (n=13, r ^2=0.901) better than the other log Ps calculated by ALOG PS and ChemSketch computational tools (r ^2 equal 0.705 and 0.568, respectively). As shown by the scatter plots in Figure 4 and Figure S1 in Supporting Information, there is no evident correlation trend between MAO A/B inhibition data and lipophilicity calculated by the expert system implemented in ChemDraw for compounds achieving finite IC50 values.
Log k’ values (k’=(tr‐t0)/t0) and purity determinations were carried out using a Phenomenex Gemini C18 4.6×150 mm, with 3 μm size particles, built on a Waters double pump HPLC system in isocratic conditions. Injection volumes were 10 μL, flow rate was 0.5 mL/min, and detection was performed with UV (λ=254 and 370 nm). Samples were prepared by dissolving 0.1 mg/mL of the solute in 10 % v/v DMSO and 90 % v/v methanol. Retention times (tr) were measured at least from three separate injections, and dead time (t0) was the retention time of deuterated methanol. The mobile phase was filtered through a Supelco Nylon‐66 membrane 0.45 μm (Merck Life Science Srl, Milan, Italy) before use. For each reference compound, the average tr of three consecutive injections of 10 μL of sample was used to calculate the log k’ values. The eluent consisted of five different mixtures of methanol and PBS buffer 10 mM at pH 7.4, with methanol/buffer ratios ranging from 80 : 20 to 60 : 40 v/v.

T2 sequence (P22303 32-614): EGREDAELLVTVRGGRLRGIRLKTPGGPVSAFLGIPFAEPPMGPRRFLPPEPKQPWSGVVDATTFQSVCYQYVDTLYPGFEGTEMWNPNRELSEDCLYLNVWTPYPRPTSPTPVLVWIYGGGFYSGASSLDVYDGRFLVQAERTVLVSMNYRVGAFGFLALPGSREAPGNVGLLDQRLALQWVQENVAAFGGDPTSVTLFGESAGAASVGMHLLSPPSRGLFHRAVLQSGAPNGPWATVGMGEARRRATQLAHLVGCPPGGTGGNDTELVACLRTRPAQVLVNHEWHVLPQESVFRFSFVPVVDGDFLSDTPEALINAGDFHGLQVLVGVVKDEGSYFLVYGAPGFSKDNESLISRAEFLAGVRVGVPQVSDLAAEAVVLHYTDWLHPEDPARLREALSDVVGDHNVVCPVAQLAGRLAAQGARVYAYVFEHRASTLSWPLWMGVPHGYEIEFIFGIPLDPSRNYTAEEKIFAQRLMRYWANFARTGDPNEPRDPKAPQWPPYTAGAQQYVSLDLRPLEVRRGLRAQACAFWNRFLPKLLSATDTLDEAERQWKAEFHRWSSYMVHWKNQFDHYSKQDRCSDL

As to `N#Cc1ccc(-c2ccc(C=NNC(=O)c3cccs3)o2)cc1` [Compound 4, N ′‐((5‐(4‐cyanophenyl)furan‐2‐yl)methylene)thiophene‐2‐carbohydrazide], the results for the IC50 against hMAO B and against hMAO A were 2.63 ± 0.42 µM and 1.46 ± 0.21 µM, respectively. Further, the inhibition at 10 µM on hAChE turned out to be 51%. The “hydrolytic stability” value in series [1] is reported as “substantial stability”.

For `CC(=O)NN=Cc1ccc(-c2ccc(C#N)cc2)o1` [Compound 6, N ′‐((5‐(4‐cyanophenyl)furan‐2‐yl)methylene)acetohydrazide], the IC50 on hMAO B worked out at 2.65 ± 0.11 µM; on hMAO A, 4.25 ± 0.45 µM. The “log k’ (logarithm of capacity factor, RP-HPLC)” value (“log k’” for short) in series [2] is listed as 0.236. For the same compound, on hAChE, the inhibition at 10 µM was found to be 38%.

Consider `O=C(N/N=C/c1ccc(-c2ccc([N+](=O)[O-])cc2)o1)c1ccncc1` [Compound 2], for which the values for the IC50 at hMAO B and against hMAO A were 3.56 ± 0.36 µM and 7.89 ± 1.1 µM, respectively. Further, the “log k’” value in series [2] was 0.522. Besides, at hAChE, the inhibition at 10 µM was 30%.

As for `N#Cc1ccc(-c2ccc(/C=N/N3CC(=O)NC3=O)o2)cc1` [Compound 7], the results for the inhibition at 10 µM at hMAO B, on hAChE and at hMAO A were 50%, 28% and 40%, respectively.

With `CS(=O)(=O)c1ccc(NN=Cc2ccc(-c3ccc(C#N)cc3)o2)cc1` [Compound 11, 4‐(5‐((2‐(4‐(methylsulfonyl)phenyl)hydrazono)methyl)furan‐2‐yl)benzonitrile], the inhibition at 10 µM came out at 28% on hMAO B, 39% at hAChE and 11% at hMAO A.

Consider `CN1CCN(N=Cc2ccco2)CC1` [Compound 16, 1‐(Furan‐2‐yl)‐N‐(4‐methylpiperazin‐1‐yl)methanimine], for which the inhibition at 10 µM on hMAO B was found to be 13%; at hAChE, 21%; on hMAO A, 18%.

On to `COc1cccc(/C=N/NC(=O)c2ccncc2)c1` [Compound 19], for which the values for the IC50 against hMAO B and against hAChE were 12.2 ± 1.5 µM and 11.2 ± 1.6 µM, respectively. The “log k’” value in series [2] stood at 0.129. At hMAO A, the inhibition at 10 µM came out at 19%.

For `O=C(NN=Cc1ccc(-c2ccc([N+](=O)[O-])cc2)o1)c1cccs1` [Compound 1, N ′‐((5‐(4‐nitrophenyl)furan‐2‐yl)methylene)thiophene‐2‐carbohydrazide], at hMAO B, the IC50 is 3.67 ± 0.92 µM. Moreover, the “log k’” value in series [2] is on record as 0.947. Also, the inhibition at 10 µM at hAChE was 40%; at hMAO A, 33%.

For `NS(=O)(=O)c1ccc(NN=Cc2ccco2)cc1` [Compound 18, 4‐(‐2‐((furan‐2‐yl)methylidene)hydrazinyl)benzene‐1‐sulfonamide], the inhibition at 10 µM is 21% at hMAO B, 27% at hAChE and 25% at hMAO A.

In the case of `N#Cc1ccc(-c2ccc(C=NNC(=O)Cc3ccccc3)o2)cc1` [Compound 8, N ′‐((5‐(4‐cyanophenyl)furan‐2‐yl)methylene)‐2‐phenyl‐acetohydrazide], the IC50 at hMAO B came to 3.61 ± 0.04 µM; on hMAO A, 5.51 ± 0.54 µM. The “log k’” value in series [2] came to 0.803. In addition, at hAChE, the inhibition at 10 µM came to 16%.

Turning to `O=C1CN(/N=C/c2ccco2)C(=O)N1` [Compound 14], the “% inhibition at 10 μM hMAO B” value at hMAO B (10 μM) is “no inhibition”. In addition, in series [2], the “log k’” value was −1.018. This compound also returned an IC50 on hAChE of 9.06 ± 0.45 µM. Besides, the inhibition at 10 µM at hMAO A was determined as 11%.

For the compound `COc1ccc(N/N=C/c2ccc(-c3ccc(C#N)cc3)o2)cc1` [Compound 10], the inhibition at 10 µM on hMAO B turned out to be 29%; on hMAO A, 47%.

As to `COc1cccc(C=NNc2ccc(S(N)(=O)=O)cc2)c1` [Compound 20, 4‐(2‐((3‐methoxyphenyl)methylidene)hydrazinyl)benzene‐1‐sulfonamide], the IC50 was 0.81 ± 0.04 µM against hMAO B and 10.2 ± 1.6 µM against hAChE. The “log k’” value in series [2] was 0.307. Further, the inhibition at 10 µM on hMAO A stood at 42%.

With `O=C(Cc1ccccc1)NN=Cc1ccco1` [Compound 17, N ′‐((furan‐2‐yl)methylidene)‐2‐phenylacetohydrazide], the inhibition at 10 µM was 22% on hMAO B, 52% at hAChE and 22% on hMAO A.

Take `N#Cc1ccc(-c2ccc(/C=N/NC(=O)c3ccncc3)o2)cc1` [Compound 5, N ′‐((5‐(4‐cyanophenyl)furan‐yl)methylene)isonicotinohydrazide]: the results for the IC50 at hMAO B and on hMAO A were 12.6 ± 0.9 µM and 6.62 ± 0.71 µM, respectively. Besides, in series [2], the “log k’” value amounted to 0.312. Besides, the inhibition at 10 µM on hAChE is 27%.

As for `O=C(N/N=C/c1ccco1)c1cccs1` [Compound 15], the inhibition at 10 µM at hMAO B turned out to be 13%; on hMAO A, 16%. Moreover, in series [2], the “log k’” value is on record as −0.010. At hAChE, this compound yielded an IC50 of 7.18 ± 0.07 µM.

With `N#Cc1ccc(-c2ccc(/C=N/Nc3ccc(S(N)(=O)=O)cc3)o2)cc1` [Compound 12], at hMAO B, the inhibition at 10 µM was 28%. Besides, in series [2], the “log k’” value was 0.466. The half-inhibitory concentration (IC50) against hAChE worked out at 1.67 ± 0.19 µM; on hMAO A, 10 ± 1.9 µM.

As to `COc1cc(C=NN2CC(=O)NC2=O)cc(OC)c1OC` [Compound 21, 1‐(((3,4,5‐trimethoxyphenyl)methylidene)amino)imidazolidine‐2,4‐dione], the values for the inhibition at 10 µM on hMAO B, on hAChE and at hMAO A were 18%, 28% and 8%, respectively.

The compound `COc1cc(C=NNC(=O)c2cccs2)ccc1-c1ccc(C#N)cc1` [Compound 13, N ′‐[(4′‐cyano‐2‐methoxy[1,1′‐biphenyl]‐4‐yl)methylidene]thiophene‐2‐carbohydrazide] displayed an IC50 at hMAO B of 2.32 ± 0.43 µM. Besides, the “log k’” value in series [2] is listed as 0.549. Further, the inhibition at 10 µM on hAChE came to 35%; on hMAO A, 29%.

A word on the IC50: it is the concentration that inhibits the measured activity by half. A higher IC50 goes with weaker potency. For orientation: inhibition means the drop in the measured response relative to a control, in per cent.

The values above are taken from PMC8518391, “Synthesis and Biological Evaluation of Dantrolene‐Like Hydrazide and Hydrazone Analogues as Multitarget Agents for Neurodegenerative Diseases” (Chemmedchem, 2021).
